{"source": "patent US11478524B1", "about": "“Methods and compositions for modulating complex mixtures by selective deletion chromatography” (UNIVERSITY OF SOUTH FLORIDA, priority 2017, dated 2022)", "origin": "cited, not measured here", "note": "Where two headings read alike, the source gives them in different places."}
{"substance": "Epigallocatechin-3-gallate [EGCG]", "values": [{"measurement": "lifespan extension", "setting": "under heat stress", "result": 13, "unit": "%"}, {"measurement": "effect on longevity", "setting": "under normal conditions", "result": "little effect"}, {"measurement": "lifespan extension", "setting": "under oxidative stress", "result": 178, "unit": "%"}]}
